The source of these data is ChEMBL document CHEMBL1201862, “PubChem BioAssay data set” (2004).

Among the test systems are SN12C; ACHN; PC-3; MCF7; IGROV-1; Malme-3M; U-251; CCRF-CEM; A498; SK-MEL-5; T47D; SW-620; RXF 393; NCI-H522; K562; HOP-62; LOX IMVI; SF-268; RPMI-8226; NCI-H226.
Assay in all cases: inhibition of tumour cell growth, NCI panel, 48 h

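Interpolation was linear, between the two tested concentrations surrounding the appropriate level; five concentrations were tested over 48 hours in 96-well plates. Here, GI50 denotes the concentration required for 50% inhibition of growth.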 Calls of active or inactive are those of the source. No stated cut-off is given here; in the data, active = GI50 up to about 1.1 µM and inactive = higher. Where only a bound is given, the exact number is not on record here.

On to `c1ccc2c(CN3CCN(Cc4c[nH]c5ccccc45)CC3)c[nH]c2c1`, for which the GI50 in the assay on SN12C is 17.7 µM (inactive); with ACHN, 19.3 µM (inactive); with PC-3 it was 18.6 µM (inactive); in the assay on MCF7, 17.9 µM (inactive); with IGROV-1 it was 11.9 µM (inactive); in the assay on Malme-3M, 15.3 µM (inactive). The GI50 in the assay with U-251 is 15.9 µM (inactive); with CCRF-CEM, 39.9 µM (inactive); with A498, 14.4 µM (inactive); in the assay with SK-MEL-5, 15.2 µM (inactive); in the assay with T47D, 14.2 µM (inactive); in the assay on SW-620 it was 28 µM (inactive). Further, the GI50 in the assay with RXF 393 is 14.3 µM (inactive); in the assay with NCI-H522, 16.5 µM (inactive); with K562 it was 12.7 µM (inactive); in the assay with HOP-62, 15.1 µM (inactive); in the assay on LOX IMVI it was 16.3 µM (inactive); in the assay on SF-268 it was 17.4 µM (inactive). The GI50 in the assay with RPMI-8226 is 19.3 µM (inactive); in the assay on NCI-H226, 16.5 µM (inactive).

In the case of `CCCC(=O)Nc1cc(C(=O)N2C[C@H]3C[C@@]34C2=CC(=O)c2[nH]cc(C)c24)n(COC)c1`, the GI50 in the assay with SN12C was 0.966 µM (active); with ACHN it was 0.197 µM (active); in the assay on PC-3, 0.745 µM (active); in the assay with MCF7 it was 0.0303 µM (active); with IGROV-1 it was 0.11 µM (active); with Malme-3M, 0.105 µM (active). For the same compound, the GI50 in the assay on U-251 is 0.114 µM (active); in the assay with CCRF-CEM, 0.014 µM (active); in the assay with A498, 0.741 µM (active); with SK-MEL-5, 0.0792 µM (active); in the assay on T47D, 0.109 µM (active); with SW-620 it was 0.0169 µM (active). For the same compound, the GI50 in the assay on RXF 393 was 0.164 µM (active); with NCI-H522 it was 0.0553 µM (active); in the assay on K562 it was 0.131 µM (active); in the assay with HOP-62, 0.728 µM (active); in the assay with LOX IMVI it was 0.12 µM (active); in the assay with SF-268, 0.103 µM (active). The GI50 is 0.71 µM (active) in the assay on RPMI-8226 and 0.475 µM (active) with NCI-H226.

As for `C=C(Cl)C(Cl)(CBr)CCC(Cl)C(C)C` (stereo not given), the GI50 in the assay on SN12C is 13.2 µM (inactive); in the assay with ACHN, 2.92 µM (inactive); in the assay on PC-3, 1.68 µM (inactive); with MCF7 it was 1.12 µM (active); in the assay with IGROV-1, 9.31 µM (inactive); with Malme-3M, 8.28 µM (inactive). For the same compound, the GI50 is 0.647 µM (active) with U-251; 26.9 µM (inactive) in the assay on CCRF-CEM; 5.21 µM (inactive) with A498; 17.7 µM (inactive) in the assay on SK-MEL-5; 0.156 µM (active) in the assay with T47D; 2.47 µM (inactive) with SW-620. Also, the GI50 in the assay on RXF 393 was 6.3 µM (inactive); with NCI-H522, 5.93 µM (inactive); in the assay on K562, 30.8 µM (inactive); with HOP-62, 1.25 µM (inactive); in the assay on LOX IMVI it was 11.6 µM (inactive); in the assay with SF-268, 1.72 µM (inactive). Also, the figures for the GI50 in the assay on RPMI-8226 and with NCI-H226 were 0.138 µM (active) and 30 µM (inactive), respectively.

On to `O=C(N/C(=C\c1ccccc1)c1nc2ccccc2c(=O)o1)c1ccccc1`, for which the GI50 was > 86.7 µM (inactive) in the assay on SN12C; 31 µM (inactive) with ACHN; > 100 µM (inactive) with PC-3; 5.38 µM (inactive) in the assay with MCF7; 31.4 µM (inactive) in the assay with IGROV-1; > 100 µM (inactive) in the assay on Malme-3M. Further, the GI50 in the assay with U-251 is 33.8 µM (inactive); in the assay with CCRF-CEM, > 100 µM (inactive); in the assay with A498 it was > 100 µM (inactive); with SK-MEL-5 it was > 100 µM (inactive); in the assay on T47D, > 28.6 µM (inactive); with SW-620, > 88.3 µM (inactive). The GI50 was > 62.5 µM (inactive) in the assay on RXF 393; 38.9 µM (inactive) in the assay with NCI-H522; > 100 µM (inactive) in the assay on K562; > 52.5 µM (inactive) in the assay on HOP-62; 27.3 µM (inactive) in the assay with LOX IMVI; 23.8 µM (inactive) in the assay on SF-268. In addition, the GI50 in the assay with RPMI-8226 is > 100 µM (inactive); with NCI-H226, > 67.6 µM (inactive).

`O=C1Nc2ccccc2S/C1=C\c1cccc(C(F)(F)F)c1`: the GI50 in the assay on SN12C was > 100 µM (inactive); with ACHN, > 100 µM (inactive); with PC-3 it was > 100 µM (inactive); in the assay with MCF7, 0.467 µM (active); in the assay with IGROV-1, > 100 µM (inactive); in the assay with Malme-3M, > 100 µM (inactive). Also, the GI50 with U-251 is > 100 µM (inactive); in the assay with CCRF-CEM, > 100 µM (inactive); in the assay with A498, > 100 µM (inactive); in the assay on SK-MEL-5, > 100 µM (inactive); in the assay on T47D it was 82.4 µM (inactive); with SW-620, > 100 µM (inactive). For the same compound, the GI50 in the assay on RXF 393, in the assay on NCI-H522, with K562, in the assay with HOP-62, in the assay on LOX IMVI and in the assay on SF-268 was > 100 µM (inactive) throughout. The GI50 in the assay on RPMI-8226 and in the assay on NCI-H226 was > 100 µM (inactive) each time.

As for `COC(=N)c1ncn(Cc2ccccc2)c1N`, the GI50 in the assay on SN12C, in the assay on ACHN, in the assay on PC-3, with MCF7, in the assay on IGROV-1 and in the assay on Malme-3M was > 100 µM (inactive) in each case. The GI50 in the assay on U-251, in the assay on CCRF-CEM, with A498, with SK-MEL-5, in the assay with T47D and with SW-620 was > 100 µM (inactive) throughout. The GI50 with RXF 393, in the assay with NCI-H522, with K562, with HOP-62, in the assay with LOX IMVI and in the assay with SF-268 was > 100 µM (inactive) in each case. The GI50 in the assay on RPMI-8226 and in the assay on NCI-H226 was > 100 µM (inactive) in each case.

As for `O=C(CSc1nc2ccc([N+](=O)[O-])cc2s1)c1ccc2ccccc2c1`, the GI50 was > 100 µM (inactive) with SN12C; > 100 µM (inactive) in the assay with ACHN; 88.1 µM (inactive) with PC-3; > 100 µM (inactive) in the assay with MCF7; > 100 µM (inactive) in the assay on IGROV-1; > 100 µM (inactive) in the assay with Malme-3M. Moreover, the GI50 in the assay on U-251 was > 100 µM (inactive); in the assay on CCRF-CEM it was 84.5 µM (inactive); in the assay on A498, > 100 µM (inactive); in the assay on SK-MEL-5 it was > 100 µM (inactive); with T47D, > 100 µM (inactive); in the assay with SW-620, > 100 µM (inactive). Further, the GI50 with RXF 393 is > 100 µM (inactive); in the assay on NCI-H522 it was > 100 µM (inactive); in the assay on K562, 84.9 µM (inactive); in the assay with HOP-62 it was > 100 µM (inactive); with LOX IMVI, > 100 µM (inactive); in the assay on SF-268, > 100 µM (inactive). In addition, the GI50 with RPMI-8226 and in the assay on NCI-H226 was > 100 µM (inactive) in each case.

On to `O=C1N(CN2CCOCC2)CN(CN2CCOCC2)C(=O)N1Cc1ccccc1`, for which the GI50 was 23 µM (inactive) in the assay with SN12C; 32.5 µM (inactive) in the assay with ACHN; 29.9 µM (inactive) in the assay with PC-3; 29.4 µM (inactive) in the assay on MCF7; 24.5 µM (inactive) in the assay on IGROV-1; 15.2 µM (inactive) with Malme-3M. The GI50 with U-251 was 23.3 µM (inactive); in the assay with CCRF-CEM, 28.7 µM (inactive); with A498, > 100 µM (inactive); in the assay with SK-MEL-5 it was 19.4 µM (inactive); in the assay with T47D, 30.3 µM (inactive); with SW-620, 22 µM (inactive). Besides, the GI50 in the assay on RXF 393 is 17.7 µM (inactive); in the assay on NCI-H522 it was 13.3 µM (inactive); in the assay with K562 it was 24 µM (inactive); in the assay on HOP-62 it was 35.4 µM (inactive); in the assay with LOX IMVI it was 15.5 µM (inactive); in the assay with SF-268, 22 µM (inactive). The figures for the GI50 in the assay on RPMI-8226 and with NCI-H226 were 26.5 µM (inactive) and 37.1 µM (inactive), respectively.

Consider `OC1C[C@H](c2ccccc2)C2(C(O)c3ccccc3C2O)[C@@H](c2ccccc2)C1` (stereo not given in full), for which the GI50 in the assay on SN12C, in the assay on ACHN, in the assay with PC-3, with MCF7, in the assay with IGROV-1 and with Malme-3M was > 100 µM (inactive) in each case. The GI50 in the assay on U-251 was > 100 µM (inactive); with CCRF-CEM it was 99.1 µM (inactive); in the assay with A498, > 100 µM (inactive); in the assay with SK-MEL-5, > 100 µM (inactive); in the assay on T47D, > 100 µM (inactive); with SW-620, > 100 µM (inactive). Moreover, the GI50 was > 100 µM (inactive) in the assay on RXF 393; 32.4 µM (inactive) in the assay with NCI-H522; > 100 µM (inactive) in the assay on K562; > 100 µM (inactive) in the assay with HOP-62; 40.2 µM (inactive) in the assay with LOX IMVI; > 100 µM (inactive) in the assay with SF-268. For the same compound, the values for the GI50 in the assay on RPMI-8226 and in the assay on NCI-H226 were 83.2 µM (inactive) and > 100 µM (inactive), respectively.

As to `O=C(O)CCC1(c2ccccc2)NC(=O)NC1=O` (stereo not given), the GI50 with SN12C, in the assay with ACHN, in the assay with PC-3, with MCF7, in the assay on IGROV-1 and with Malme-3M was > 100 µM (inactive) throughout. The GI50 in the assay on U-251, in the assay on CCRF-CEM, with A498, in the assay on SK-MEL-5, with T47D and with SW-620 was > 100 µM (inactive) throughout. Moreover, the GI50 in the assay on RXF 393, in the assay on NCI-H522, in the assay with K562, with HOP-62, in the assay with LOX IMVI and with SF-268 was > 100 µM (inactive) each time. Besides, the GI50 with RPMI-8226 and with NCI-H226 was > 100 µM (inactive) throughout.
